How the values were obtained:
TSLP mRNA = TSLP mRNA expression (RT-PCR) in HMC-1 cells; format: cell-based, human
Method: (1) Cell culture: A human mast cell line (HMC-1) was cultured in an IMDM supplemented with 10% FBS at 37° C. and 5% CO2. Candidate materials were dissolved in DMSO, and then filtered using a 0.22 μm filter. The resulting candidate materials were diluted with DMSO and the HMC-1 cells were treated therewith.
(5) Reverse transcription-polymerase chain reaction (RT-PCR) quantitative real time PCR: Total RNA was isolated from cells and tissues, and cDNA was synthesized using a reverse transcriptase and was then reacted with cytokine primers to be analyzed, followed by PCR and real-time PCR. The RT-PCR products were subjected to electrophoresis using 1.5% agarose gel for analysis.

SD rats = assay: Acute dermal toxicity test; format: in vivo; conditions: for Number of death on day 1 / Number of death on day 2 / Number of death on day 3 / Number of death on day 4 / Number of death on day 5 / Number of death on day 6 / Number of death on day 7 / Number of death on day 8-14 / Number of death on day 0: dose group 200 (head μg/kg bw); for Number of death on day 0: single transdermal
Method: (1) Environmental Conditions: In the present experiment, experimental animals were bred in a clean animal breeding room (small animal room #2-302) at Hoseo University Safety Evaluation Center, set under environmental conditions: temperature of 22±3° C.; relative humidity of 50±20%; ventilation frequency of 10 to 15 times/hour; illumination period of 12 hours; and illuminance of 150 Lux to 300 Lux.
(2) Cages and rugs: Two or three animals per sex were accommodated in each of polycarbonate cages (270×500×200 mm, KYERYONG SCIENCE) with a stainless steel mesh lid during an acclimation period, and after group division, 1 animal per sex was accommodated therein. As the rugs, sterile betachips (NEPCO) irradiated with gamma rays were used.
(3) Feed and drinking water: The animals were fed freely a mouse feed for laboratory, animals (5053-Picolab Rodent 20) manufactured by PMI Nutrition International, and filtered water treated with ultraviolet sterilization (R/O water) was freely supplied as drinking water.
(4) Examination of contaminant in feed and drinking water: Contaminants in the feed were examined by receiving a test result from the feed manufacturer, and the quality of drinking water was checked for contamination by regular inspection according to the corresponding SOP of the present test institute and it was confirmed that there were no contaminants.
(A) About 24 hours before administration, hairs on the dorsal part was removed such that the hair-removed site accounted for about 10% or more of the entire surface area thereof, and attention was paid not to injure the skin.
(B) On the day of administration, a dosage for each individual was calculated, and then a test material was sufficiently wetted with a solvent and then applied on the site corresponding to about 10% (about 44 cm) of the entire surface area.
(C) The test material was kept in contact with the skin using a porous gauze, a non-irritating tape, and a bandage during the 24-hour exposure period.
(D) When the exposure period was terminated, the remaining test material was removed using tepid water.
(A) General symptom observation: All animals were observed intensively from 30 minutes to 4 hours after administration, and general symptoms were observed once a day for 14 days. At the time of observation, death and clinical symptoms were recorded on an individual basis.
(B) Body weight measurement: All animals were measured at the time of receipt, at the time of group division, immediately before administration (day of administration), and on day 1, day 4, day 7, day 10, and day 14 after initiation of administration.
(C) Autopsy: During the test, dead animals were immediately autopsied and organs were inspected with the naked eye, and at the end of the test, all living animals were euthanized by CO2 gas inhalation and venesectioned, and then the organs visually examined.
(E) Statistical analysis: Body weight data were expressed as mean and standard deviation, and no statistical analysis of body weight was performed.

Cl.N=C(N)NC(=N)Nc1ccc(Cl)cc1 [IPS-07001]
TSLP mRNA expression (TSLP mRNA): significantly inhibited
Number of death on day 1 (SD rats; Female): 0
Number of death on day 2 (SD rats; Female): 0
Number of death on day 3 (SD rats; Female): 0
Number of death on day 4 (SD rats; Female): 0
Number of death on day 5 (SD rats; Female): 0
Number of death on day 6 (SD rats; Female): 0
Number of death on day 7 (SD rats; Female): 0
Number of death on day 8-14 (SD rats; Female): 0
Number of death on day 0 (SD rats; Female): 0
Number of death on day 1 (SD rats; Male): 0
Number of death on day 2 (SD rats; Male): 0
Number of death on day 3 (SD rats; Male): 0
Number of death on day 4 (SD rats; Male): 0
Number of death on day 5 (SD rats; Male): 0
Number of death on day 6 (SD rats; Male): 0
Number of death on day 7 (SD rats; Male): 0
Number of death on day 8-14 (SD rats; Male): 0
Number of death on day 0 (SD rats; Male): 0
dead animals during the test period (SD rats; all test material-administered groups, 14 days): No dead animals
Gross findings (internal and external) (SD rats; rat, in vivo): NGF ^a)
body weight from day 2 (SD rats; rat, in vivo): normal body weight increase pattern
body weight on day 1 after administration (SD rats; rat, in vivo): decrease in body weight
clinical symptoms, 4 hour (SD rats; rat, in vivo): NCS
clinical symptoms, Day 1 (SD rats; rat, in vivo): NCS
clinical symptoms, Day 2 (SD rats; rat, in vivo): NCS
clinical symptoms, Day 3 (SD rats; rat, in vivo): NCS
clinical symptoms, Day 4 (SD rats; rat, in vivo): NCS
clinical symptoms, Day 5 (SD rats; rat, in vivo): NCS
clinical symptoms, Day 6 (SD rats; rat, in vivo): NCS
clinical symptoms, Day 7 (SD rats; rat, in vivo): NCS
clinical symptoms, Day 8 (SD rats; rat, in vivo): NCS
clinical symptoms, Day 9 (SD rats; rat, in vivo): NCS
clinical symptoms, Day 10-14 (SD rats; rat, in vivo): NCS
visual pathological examination (autopsy) (SD rats; surviving animals after observation period): no individual showed any abnormalities
